Data set [1] in a line: Monitoring of the blood clearance profile of peptide-dye conjugates. Format: in vivo. Conditions: rat ear; tail vein bolus; 830 nm after excitation at 780 nm. The text has this: A laser of appropriate wavelength for excitation of the dye chromophore was directed into one end of a fiber optic bundle and the other end was positioned a few millimeters from the ear of a rat. A second fiber optic bundle was also positioned near the same ear to detect the emitted fluorescent light and the other end was directed into the optics and electronics for data collection. An interference filter (IF) in the collection optics train was used to select emitted fluorescent light of the appropriate wavelength for the dye chromophore.
Sprague-Dawley or Fischer 344 rats were used in these studies. The animals were anesthetized with urethane administered via intraperitoneal injection at a dose of 1.35 g/kg body weight. After the animals had achieved the desired plane of anesthesia, a 21 gauge butterfly with 12″ tubing was placed in the lateral tail vein of each animal and flushed with heparinized saline. The animals were placed onto a heating pad and kept warm throughout the entire study. The lobe of the left ear was affixed to a glass microscope slide to reduce movement and vibration.
Incident laser light delivered from the fiber optic was centered on the affixed ear. Data acquisition was then initiated, and a background reading of fluorescence was obtained prior to administration of the test agent. For Cytates 1 or 2, the peptide-dye conjugate was administered to the animal through a bolus injection, typically 0.5 to 2.0 mL, in the lateral tail vein. This procedure was repeated with several dye-peptide conjugates in normal and tumor-bearing rats. Representative profiles as a method to monitor blood clearance of the peptide-dye conjugate in normal and tumor-bearing animals are shown in FIGS. 12 to 16. The data were analyzed using a standard sigma plot software program for a one-compartment model.

In data set [2] the test system is Pancreatic Ductal Adenocarcinoma (DSL 6A). Put plainly: In vivo fluorescence imaging of pancreatic ductal adenocarcinoma (DSL 6A) tumors. Details: species or system rat. The text has this: (§1) A non-invasive in vivo fluorescence imaging apparatus was employed to assess the efficacy of contrast agents developed for tumor detection in animal models. A LaserMax Inc. laser diode of nominal wavelength 780 nm and nominal power of 40 mW was used. The detector was a Princeton Instruments model RTE/CCD-1317-K/2 CCD camera with a Rodenstock 10 mm F2 lens (stock #542.032.002.20) attached. An 830 nm interference […] (CVI Laser Corp., part # F10-830-4-2) was mounted in front of the CCD input lens such that only emitted fluorescent light from the contrast agent was imaged. Typically, an image of the animal was taken pre-injection of contrast agent. This image was subsequently subtracted (pixel by pixel) from the post injection images. However, the background subtraction was […] done once the animal had been removed from the sample area and returned at a later time for images taken several hours post injection.
DSL 6A tumors were induced in male Lewis rats in the left flank area by the introduction of material from a solid (donor) implant, and the tumors were palpable in approximately 14 days. The animals were anesthetized with xylazine:ketamine:acepromazine, 1.5:1.5:0.5 at 0.8 mL/kg via intramuscular injection. The area of the tumor (left flank) was shaved to expose the tumor and the surrounding surface area. […]

Data set [3] concerns Prostatic Carcinoma (Dunning R3327-H). Put plainly: In vivo fluorescence imaging of prostatic carcinoma (R3327-H) tumors. Details: species or system rat.
Source text: as §1
The imaging apparatus and the procedure used are described as in Example 12. Prostate tumors (Dunning R3327-H) were induced in young male Copenhagen rats in the left flank area from a solid implant. These tumors grow very slowly and palpable masses were present 4-5 months post implant. FIGS. 7C-D are images of a rat with an induced prostatic carcinoma tumor (R3327-H) imaged at two minutes (FIG. 7C) and 30 minutes (FIG. 7D) post injection.

For data set [4], the system named is pancreatic acinar carcinoma expressing the SST-2 receptor (CA20948). The data set can be described thus: In vivo fluorescence imaging of rat pancreatic acinar carcinoma (CA20948). Conditions: for uptake (fluorescence) in tumor at 45 minutes: 45 minutes post injection, rats with CA20948 tumor.
Source text: as §1
The imaging apparatus and the procedure used are described in Example 12. Rat pancreatic acinar carcinoma expressing the SST-2 receptor (CA20948) was induced by solid implant technique in the left flank area, and palpable masses were detected nine days post implant. The images obtained at 2 and 30 minutes post injection are shown in FIG. 7E-F. FIGS. 7E-F are images of a rat with an induced pancreatic acinar carcinoma (CA20948) expressing the SST-2 receptor imaged at two minutes (FIG. 7E) and 30 minutes (FIG. 7F) post injection.
The imaging apparatus and the procedure used are described in Example 12, except that each animal received 500 μL of a 1.0 mg/mL solution of Cytate 1 solution of 25% dimethylsulfoxide in water.
Rat pancreatic acinar carcinoma expressing the SST-2 receptor (CA20948) were induced by solid implant technique in the left flank area, and palpable masses were detected 24 days post implant. Images were obtained at various times post injection.
(§2) Cytate 1 was evaluated in the CA20948 Lewis rat model. […] At 19 hours post injection the animal was again imaged (FIG. 9B). […] As a control, the organs were imaged again (FIG. 10A) and the image was compared with that of the same tissues in the uninjected rat (FIG. 10B).

A short description of data set [5]: Imaging of individual organs removed from CA20948 tumor-bearing rat. It is filed as in vivo. The method, then:
as §2
Individual organs were removed and imaged.

With `C[C@@H](O)[C@H](NC(=O)[C@@H]1CSSC[C@H](NC(=O)[C@@H](Cc2ccccc2)NC(=O)CCN2C(=CC=CC=CC=CC3=[N+](CCC(=O)N[C@H](Cc4ccccc4)C(=O)N[C@H]4CSSC[C@@H](C(=O)N[C@H](C(=O)O)[C@@H](C)O)NC(=O)[C@H]([C@@H](C)O)NC(=O)[C@H](CCCCN)NC(=O)[C@@H](Cc5c[nH]c6ccccc56)NC(=O)[C@H](Cc5ccc(O)cc5)NC4=O)c4ccc5ccccc5c4C3(C)C)C(C)(C)c3c2ccc2ccccc32)C(=O)N[C@@H](Cc2ccc(O)cc2)C(=O)N[C@H](Cc2c[nH]c3ccccc23)C(=O)N[C@@H](CCCCN)C(=O)N[C@@H]([C@@H](C)O)C(=O)N1)C(=O)O` [Cytate 2, bis Octreotate-Bisethylcarboxymethylindocyanine dye], in data set [1], the “blood fluorescence signal after bolus injection (rise)” value was “rapidly increased to a peak value” and the “blood fluorescence signal after peak (clearance from the bloodstream)” value was “decayed as a function of time”.
For the compound `CC1(C)C(/C=C/C=C/C=C/C=C2\N(CCCCS(=O)(=O)O)c3ccc4ccccc4c3C2(C)C)=[N+](CCCCS(=O)(=O)[O-])c2ccc3ccccc3c21` [ICG, indocyanine green, reference compound], the “dye intensity in the tumor” value in data set [2] (30 minutes post-ICG injection vs 2 minutes, DSL 6A tumor, male Lewis rats, 500 μL of 0.42 mg/mL in water, tail vein) is “considerably diminished”; in data set [3] (30 minutes post-ICG injection vs 2 minutes, R3327-H tumor, male Copenhagen rats), “considerably diminished”; in data set [4] (30 minutes post-ICG injection vs 2 minutes, CA20948 tumor) it was “considerably diminished and almost absent”. Also, the “perfusion of the agent into the tumor” value is recorded as “slow perfusion of the agent over time into the tumor” in data set [2] (DSL 6/A (pancreatic) tumor line, CCD camera); “slow perfusion of the agent over time into the tumor” in data set [3] (Dunning R3327H (prostate) tumor line, CCD camera); “slight but transient perfusion” in data set [4] (CA20948 (pancreatic) tumor line, absent after 30 minutes post injection). The “uptake (fluorescence) in tumor at 45 minutes” value in data set [4] is reported as “mostly cleared”. In addition, in data set [4] (CA20948, compared to the other two tumor lines), the “non-specific localization into the tumor line” value is recorded as “no non-specific localization”.
In the case of `C[C@@H](O)[C@H](NC(=O)[C@@H]1CSSC[C@H](NC(=O)[C@@H](Cc2ccccc2)NC(=O)CCN2C(=CC=CC=CC=CC3=[N+](CCC(=O)O)c4ccc5ccccc5c4C3(C)C)C(C)(C)c3c2ccc2ccccc32)C(=O)N[C@@H](Cc2ccc(O)cc2)C(=O)N[C@H](Cc2c[nH]c3ccccc23)C(=O)N[C@@H](CCCCN)C(=O)N[C@@H]([C@@H](C)O)C(=O)N1)C(=O)O` [Cytate 1, monoOctreotate-Bisethylcarboxymethylindocyanine dye], the “uptake (fluorescence) in tumor at 45 minutes” value in data set [4] is recorded as “still intense”. For the same compound, the “localization of dye in the tumor” value in data set [4] (90 minutes post injection, CA20948 Lewis rat model) is given as “strong localization”. In addition, the tumor visualization entry in data set [4] (19 hours post injection, CA20948 Lewis rat model) is given as “easily observed”. Moreover, in data set [4] (CA20948 tumor, 500 μL of 1.0 mg/mL in 25% dimethylsulfoxide in water), the “time of maximal uptake into the tumor” value is on record as “about five”. In addition, the “persistence of dye fluorescence in the tumor” value in data set [4] (CA20948 tumor, post-injection) is recorded as “remained intense in the tumor for several hours”. In addition, in data set [5] (removed organ imaged), the uptake in adrenals entry is “High uptake”, the uptake in heart entry is listed as “significantly lower uptake”, the uptake in liver result is given as “significantly lower uptake” and the uptake in pancreas result is “High uptake”. Moreover, in data set [5] (removed organ imaged), the uptake in spleen result is on record as “significantly lower uptake”. Further, in data set [5] (removed tissue imaged), the uptake in muscle result was “significantly lower uptake” and the “uptake in tumor tissue” value is listed as “High uptake”. In data set [1], the “blood fluorescence signal after bolus injection (rise)” value was “rapidly increased to a peak value” and the “blood fluorescence signal after peak (clearance from the bloodstream)” value was “decayed as a function of time”.

The values above are taken from patent US7566444B2, “Versatile hydrophilic dyes” (Mallinckrodt Inc., priority 2000, dated 2009).
